These results are taken from the supplement of paper PMC11061612.

Each structure is given as a SMILES string.

Holding throughout (assay): combination Emax (second highest fraction inhibited in the dose matrix, 72 h); higher = more inhibition; extreme values may be limits of the assay
The subject of experiment [1] is T-T (Esophageal Squamous Cell Carcinoma). Put shortly:
(§1)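 After 24 hours at 37°C and 5% CO2 in 1536-well plates, cells in DMEM/F12 or RPMI plus 10% FBS received two-drug dose matrices for 72 hours. Viability came from CellTiter-Glo 2.0 luminescence and was scaled as inhibition, anchored at 0 by vehicle wells and at 1 by blank wells. Combination Emax is taken as the second-highest inhibition in the matrix, and Bliss excess as the observed combination effect less EA + EB − EA·EB, with EA and EB the single-agent effects.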

In another experiment the test system is M059J (Glioblastoma). A digest of the protocol: as §1
The subject of experiment [2] is 8505C (Thyroid Gland Carcinoma). Put shortly:
as §1

In experiment [3] the test system is NCCIT (Other Solid Carcinomas). Put shortly: as §1
For the next experiment, the system named is G-361 (Melanoma). A digest of the protocol: as §1
For experiment [4], the system named is KMS-12-BM (Plasma Cell Myeloma). A digest of the protocol:
as §1

The test system of experiment [5] is NCI-H3122 (Lung Adenocarcinoma). Put shortly: as §1
Another experiment has as its system SJSA-1 (Osteosarcoma). A digest of the protocol:
as §1

Experiment [6] concerns CW-2 (Colorectal Carcinoma). A digest of the protocol:
as §1

The test system of experiment [7] is SK-GT-4 (Esophageal Adenocarcinoma). A digest of the protocol: as §1
In the next experiment the test system is RD (Rhabdomyosarcoma). A digest of the protocol:
as §1

Experiment [8] deals with NCI-H520 (Squamous Cell Lung Carcinoma). A digest of the protocol:
as §1

Experiment [9] deals with KU812 (Chronic Myelogenous Leukemia). Put shortly:
as §1

The subject of experiment [10] is JHH-4 (Hepatocellular Carcinoma). A digest of the protocol:
as §1

The test system of experiment [11] is MOG-G-CCM (Low Grade Glioma). Put shortly:
as §1

Experiment [12] relates to CHSA8926 (Chondrosarcoma). A digest of the protocol: as §1
Experiment [13] has as its system NCI-H929 (Plasma Cell Myeloma). Put shortly: as §1
Experiment [14] has as its system KYSE-270 (Esophageal Squamous Cell Carcinoma). Put shortly:
as §1

Experiment [15] has as its system SU-DHL-5 (B-Cell Non-Hodgkin's Lymphoma). Put shortly: as §1

For `NC1(C(=O)N[C@@H](CCO)c2ccc(Cl)cc2)CCN(c2ncnc3[nH]ccc23)CC1` [Capivasertib] + C[C@@H]1COCCN1C2=NC(=NC(=C2)C3(CC3)[S@](=N)(=O)C)C4=C5C=CNC5=NC=C4 [AZD6738] (first compound max 10 µM, 7x7, partner max 10 µM), the “combination Emax” value in experiment [1] came out at 0.389; in the experiment with M059J (Glioblastoma), 0.622; in experiment [2] it was 0.475; in [3] it was 0.66; in the experiment with G-361 (Melanoma) it was 0.614; in experiment [4] it was 0.823. In addition, the “combination Emax” value in experiment [5] was determined as 0.727; in the experiment on SJSA-1 (Osteosarcoma), 0.713; in experiment [6] it was 0.542; in experiment [7], 0.614; with RD (Rhabdomyosarcoma), 0.402; in experiment [8], 0.711. Also, the “combination Emax” value in experiment [9] was 0.851; in experiment [10], 0.309; in [11] it was 0.787; in experiment [12] it was 0.54; in experiment [13], 1; in [14], 0.651. Also, the “combination Emax” value in experiment [15] turned out to be 1.
For the compound `NC1(C(=O)N[C@@H](CCO)c2ccc(Cl)cc2)CCN(c2ncnc3[nH]ccc23)CC1` [Capivasertib] + Cn1cnc2c(F)c(Nc3ccc(Br)cc3Cl)c(C(=O)NOCCO)cc21 [Selumetinib] (first compound max 10 µM, 7x7, partner max 10 µM), the “combination Emax” value turned out to be 0.429 in [1]; 0.415 with M059J (Glioblastoma); 0.5 in [2]; 0.55 in [3]; 0.83 with G-361 (Melanoma); 0.427 in [4]. In addition, the “combination Emax” value in experiment [5] was 0.882; in the experiment on SJSA-1 (Osteosarcoma), 0.658; in [6], 0.482; in experiment [7], 0.767; in the experiment on RD (Rhabdomyosarcoma), 0.633; in experiment [8], 0.548. Also, the “combination Emax” value in experiment [9] was 0.983; in experiment [10] it was 0.663; in experiment [11] it was 0.548; in experiment [12], 0.48; in experiment [13], 1; in [14], 0.476. Also, the “combination Emax” value in experiment [15] amounted to 1.
Consider `Cc1nc(Nc2ncc(C(=O)Nc3c(C)cccc3Cl)s2)cc(N2CCN(CCO)CC2)n1` [Dasatinib] + CC(=O)Nc1cccc(-n2c(=O)n(C3CC3)c(=O)c3c(Nc4ccc(I)cc4F)n(C)c(=O)c(C)c32)c1 [Trametinib] (first compound max 2 µM, 7x7, partner max 1 µM), for which the “combination Emax” value was determined as 0.5 in experiment [1]; 0.492 in the experiment on M059J (Glioblastoma); 0.628 in experiment [2]; 0.366 in experiment [3]; 0.753 in the experiment on G-361 (Melanoma); 0.396 in experiment [4]. Also, the “combination Emax” value in experiment [5] is 0.705; in the experiment on SJSA-1 (Osteosarcoma), 0.522; in experiment [6], 0.551; in experiment [7], 0.791; in the experiment with RD (Rhabdomyosarcoma), 0.769; in experiment [8] it was 0.233. For the same compound, the “combination Emax” value came to 1 in experiment [9]; 1 in experiment [10]; 0.741 in experiment [11]; 0.823 in experiment [12]; 0.992 in experiment [13]; 0.603 in experiment [14]. Besides, the “combination Emax” value in experiment [15] was determined as 1.
`CS(=O)(=O)CCNCc1ccc(-c2ccc3ncnc(Nc4ccc(OCc5cccc(F)c5)c(Cl)c4)c3c2)o1` [Lapatinib] + C[C@@H](Oc1cc(-c2cnn(C3CCNCC3)c2)cnc1N)c1c(Cl)ccc(F)c1Cl [Crizotinib] (first compound max 10 µM, 7x7, partner max 10 µM): the “combination Emax” value was found to be 0.938 in [1]; 0.801 with M059J (Glioblastoma); 0.721 in experiment [2]; 0.599 in experiment [3]; 0.972 with G-361 (Melanoma); 0.965 in experiment [4]. For the same compound, the “combination Emax” value in [5] worked out at 0.938; in the experiment with SJSA-1 (Osteosarcoma) it was 0.908; in [6] it was 0.708; in [7], 0.82; with RD (Rhabdomyosarcoma), 0.891; in experiment [8], 0.659. Besides, the “combination Emax” value in experiment [9] turned out to be 0.999; in experiment [10], 0.546; in [11], 0.745; in [12], 0.928; in experiment [13], 0.97; in experiment [14] it was 0.967. Further, the “combination Emax” value in [15] came to 1.
In the case of `CC(=O)c1c(C)c2cnc(Nc3ccc(N4CCNCC4)cn3)nc2n(C2CCCC2)c1=O` [Palbociclib] + CC1(C)CCC(CN2CCN(c3ccc(C(=O)NS(=O)(=O)c4ccc(NCC5CCOCC5)c([N+](=O)[O-])c4)c(Oc4cnc5[nH]ccc5c4)c3)CC2)=C(c2ccc(Cl)cc2)C1 [Venetoclax] (first compound max 10 µM, 7x7, partner max 1 µM), the “combination Emax” value in experiment [1] is 0.242; with M059J (Glioblastoma), 0.0491; in [2], 0.047; in [3] it was 0.279; in the experiment on G-361 (Melanoma), 0.488; in [4], 1. For the same compound, the “combination Emax” value in [5] came out at 0.572; in the experiment with SJSA-1 (Osteosarcoma), 0.276; in [6], 0.336; in [7], 0.216; in the experiment with RD (Rhabdomyosarcoma), 0.331; in experiment [8] it was 0.628. Also, the “combination Emax” value in [9] came out at 0.521; in [10], 0.328; in experiment [11] it was 0.136; in [12] it was 0.188; in [13] it was 0.356; in experiment [14], 0.125. Besides, the “combination Emax” value in experiment [15] is 1.
In the case of `CC(=O)c1c(C)c2cnc(Nc3ccc(N4CCNCC4)cn3)nc2n(C2CCCC2)c1=O` [Palbociclib] + Cc1c2c(nn1C)CSCc1cc(n(C)n1)CSc1cc(c3ccccc3c1)OCCCc1c(C(=O)O)n(C)c3c-2c(Cl)ccc13 [AZD5991] (first compound max 10 µM, 7x7, partner max 1 µM), the “combination Emax” value in experiment [1] stood at 0.799; in the experiment on M059J (Glioblastoma), 0.191; in experiment [2], 0.245; in experiment [3], 0.809; with G-361 (Melanoma), 0.743; in [4], 1. The “combination Emax” value amounted to 0.605 in experiment [5]; 0.351 with SJSA-1 (Osteosarcoma); 0.451 in experiment [6]; 0.305 in [7]; 0.317 in the experiment with RD (Rhabdomyosarcoma); 0.638 in experiment [8]. The “combination Emax” value in [9] is 0.834; in experiment [10], 0.397; in experiment [11] it was 0.169; in experiment [12], 0.289; in experiment [13], 1; in [14], 0.568. Also, in experiment [15], the “combination Emax” value worked out at 1.
As for `CC(=O)c1c(C)c2cnc(Nc3ccc(N4CCNCC4)cn3)nc2n(C2CCCC2)c1=O` [Palbociclib] + Cn1cnc2c(F)c(Nc3ccc(Br)cc3Cl)c(C(=O)NOCCO)cc21 [Selumetinib] (first compound max 10 µM, 7x7, partner max 10 µM), the “combination Emax” value in experiment [1] worked out at 0.46; in the experiment with M059J (Glioblastoma), 0.179; in experiment [2] it was 0.364; in experiment [3] it was 0.276; with G-361 (Melanoma), 0.721; in experiment [4] it was 0.642. The “combination Emax” value in experiment [5] was 0.701; in the experiment on SJSA-1 (Osteosarcoma), 0.424; in experiment [6] it was 0.451; in experiment [7], 0.566; in the experiment on RD (Rhabdomyosarcoma) it was 0.569; in experiment [8] it was 0.679. Besides, the “combination Emax” value worked out at 0.904 in experiment [9]; 0.59 in [10]; 0.157 in [11]; 0.178 in experiment [12]; 0.79 in experiment [13]; 0.252 in experiment [14]. In [15], the “combination Emax” value is 1.
